Test results from US12662489B2 (Sitryx Therapeutics Limited, priority 2023, dated 2026).

Tests used:
[1] = biological target: T1, MTHFD1 recombinant human enzyme (Homo sapiens, UniProt P11586); experiment: MTHFD1 inhibition assay (NAD(P)H-Glo luminescence); details: MTHFD1 IC50, recombinant human enzyme 200 nM, NADP, band
T1 sequence (P11586 2-291 limits assumed): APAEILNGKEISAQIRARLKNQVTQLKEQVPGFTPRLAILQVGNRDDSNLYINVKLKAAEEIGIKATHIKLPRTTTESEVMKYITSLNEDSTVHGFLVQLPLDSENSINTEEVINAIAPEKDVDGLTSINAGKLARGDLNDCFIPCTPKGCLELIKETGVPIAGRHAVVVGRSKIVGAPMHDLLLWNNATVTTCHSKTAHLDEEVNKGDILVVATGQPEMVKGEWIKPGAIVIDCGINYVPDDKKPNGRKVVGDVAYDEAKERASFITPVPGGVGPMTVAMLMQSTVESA

[2] = biological target: T2, MTHFD2 recombinant human enzyme (Homo sapiens, UniProt P13995); experiment: MTHFD2 inhibition assay (NAD(P)H-Glo luminescence); details: for MTHFD1/MTHFD2 IC50 ratio: selectivity of MTHFD2 inhibition over MTHFD1, band
T2 sequence (P13995 36-350): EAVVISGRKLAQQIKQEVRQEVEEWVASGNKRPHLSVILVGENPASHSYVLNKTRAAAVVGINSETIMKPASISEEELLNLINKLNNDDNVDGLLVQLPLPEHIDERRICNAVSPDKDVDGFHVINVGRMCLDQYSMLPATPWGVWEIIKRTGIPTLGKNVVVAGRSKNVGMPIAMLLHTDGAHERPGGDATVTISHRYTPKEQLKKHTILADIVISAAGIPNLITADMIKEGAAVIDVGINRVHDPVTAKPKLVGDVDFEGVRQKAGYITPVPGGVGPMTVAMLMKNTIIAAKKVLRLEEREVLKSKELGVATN

SMILES | IC50 [1] | IC50 [2] | MTHFD1/MTHFD2 IC50 ratio [2]
COC[C@H]1CN(c2ccc3c4c(c(=O)oc3c2C)CN(C(=O)c2cc(N3CC5CC5C3)c(C(=O)NS(=O)(=O)C3(C)CC3)c(C(F)(F)F)c2)CC4)CCN1C (stereo partly drawn) [Example 104, 2-(3-azabicyclo[3.1.0]hexan-3-yl)-4-(8-((R)-3-(methoxymethyl)-4-methylpiperazin-1-yl)-7-methyl-5-oxo-1,3,4,5-tetrahydro-2H-chromeno[3,4-c]pyridine-3-carbonyl)-N-((1-methylcyclopropyl)sulfonyl)-6-(trifluoromethyl)benzamide] | > 5000 nM | 100 to 1000 nM | H (>9.0 to 30)
COC[C@H]1CN(c2ccc3c4c(c(=O)oc3c2C)CN(C(=O)c2ccc(C(=O)NS(=O)(=O)C3(C)CC3)c(OC3CCCC3)c2)CC4)CCN1C [Example 8, (R)-2-(cyclopentyloxy)-4-(8-(3-(methoxymethyl)-4-methylpiperazin-1-yl)-7-methyl-5-oxo-1,3,4,5-tetrahydro-2H-chromeno[3,4-c]pyridine-3-carbonyl)-N-((1-methylcyclopropyl)sulfonyl)benzamide] | 10 to 100 nM | 10 to 100 nM | F (<3)
COC[C@H]1CN(c2cc(C)c3c4c(c(=O)oc3c2C)CN(C(=O)c2ccc(C(=O)NS(=O)(=O)N3CCCC3)c(N3CC5CCC3C5)c2)CC4)CCN1C (stereo partly drawn) [Example 115, 2-(2-azabicyclo[2.2.1]heptan-2-yl)-4-(8-((R)-3-(methoxymethyl)-4-methylpiperazin-1-yl)-7,10-dimethyl-5-oxo-1,3,4,5-tetrahydro-2H-chromeno[3,4-c]pyridine-3-carbonyl)-N-(pyrrolidin-1-ylsulfonyl)benzamide] | 10 to 100 nM | 10 to 100 nM | F (<3)
COC[C@H]1CN(c2cc(C)c3c4c(c(=O)oc3c2C)CN(C(=O)c2ccc(C(=O)NS(=O)(=O)C3(C)CC3)c(OC3CCC(F)(F)CC3)c2F)CC4)CCN1C [Example 86, (R)-2-((4,4-difluorocyclohexyl)oxy)-3-fluoro-4-(8-(3-(methoxymethyl)-4-methylpiperazin-1-yl)-7,10-dimethyl-5-oxo-1,3,4,5-tetrahydro-2H-chromeno[3,4-c]pyridine-3-carbonyl)-N-((1-methylcyclopropyl)sulfonyl)benzamide] | 10 to 100 nM | 10 to 100 nM | F (<3)
CCOc1c(C(=O)NS(=O)(=O)N(C2CC2)C2CC2)ccc(C(=O)N2CCc3c(c(=O)oc4c(C)c(N5CCN(C)[C@@H](COC)C5)cc(C)c34)C2)c1F [Example 231] | 10 to 100 nM | 10 to 100 nM | F (<3)
CCOc1c(C(=O)NS(=O)(=O)N2CC3(CCC3)C2)ccc(C(=O)N2CCc3c(c(=O)oc4c(C)c(N5CCN(C)[C@@H](COC)C5)cc(C)c34)C2)c1F [Example 233] | 10 to 100 nM | 10 to 100 nM | F (<3)
CCOc1c(C(=O)NS(=O)(=O)N2C3CCCC2CC3)ccc(C(=O)N2CCc3c(c(=O)oc4c(C)c(N5CCN(C)[C@@H](COC)C5)ccc34)C2)c1F [Example 236] | 10 to 100 nM | 10 to 100 nM | F (<3)
COC[C@H]1CN(c2cc(C)c3c4c(c(=O)oc3c2C)CN(C(=O)c2ccc(C(=O)NS(=O)(=O)N(C)C)c(O[C@@H]3C[C@@H]5C[C@@H]5C3)c2F)CC4)CCN1C [Example 11, 2-(((1R,3r,5S)-bicyclo[3.1.0]hexan-3-yl)oxy)-N-(N,N-dimethylsulfamoyl)-3-fluoro-4-(8-((R)-3-(methoxymethyl)-4-methylpiperazin-1-yl)-7,10-dimethyl-5-oxo-1,3,4,5-tetrahydro-2H-chromeno[3,4-c]pyridine-3-carbonyl)benzamide] | 1 to 10 nM | 1 to 10 nM | F (<3)
COC[C@H]1CN(c2cc(C)c3c4c(c(=O)oc3c2C)CN(C(=O)c2ccc(C(=O)NS(=O)(=O)C3(C)CC3)c(N3CCCC(F)(F)C3)c2F)CC4)CCN1C [Example 76, (R)-2-(3,3-difluoropiperidin-1-yl)-3-fluoro-4-(8-(3-(methoxymethyl)-4-methylpiperazin-1-yl)-7,10-dimethyl-5-oxo-1,3,4,5-tetrahydro-2H-chromeno[3,4-c]pyridine-3-carbonyl)-N-((1-methylcyclopropyl)sulfonyl)benzamide] | 10 to 100 nM | 1 to 10 nM | 
COC[C@H]1CN(c2cc(C)c3c4c(c(=O)oc3c2C)CN(C(=O)c2cc3c(c(C(=O)NS(=O)(=O)N5CCCC5)c2)OC2(CCC2)O3)CC4)CCN1C [Example 167, (R)-6-(8-(3-(methoxymethyl)-4-methylpiperazin-1-yl)-7,10-dimethyl-5-oxo-1,3,4,5-tetrahydro-2H-chromeno[3,4-c]pyridine-3-carbonyl)-N-(pyrrolidin-1-ylsulfonyl)spiro[benzo[d][1,3]dioxole-2,1′-cyclobutane]-4-carboxamide] | > 5000 nM | 100 to 1000 nM | H (>9.0 to 30)
COC[C@H]1CN(c2cc(Cl)c3c4c(c(=O)oc3c2C)CN(C(=O)c2cc(N(C)C)c(C(=O)NS(=O)(=O)N(C3CC3)C3CC3)cc2F)CC4)CCN1C [Example 277, (R)-4-(10-chloro-8-(3-(methoxymethyl)-4-methylpiperazin-1-yl)-7-methyl-5-oxo-1,3,4,5-tetrahydro-2H-chromeno[3,4-c]pyridine-3-carbonyl)-N-(N,N-dicyclopropylsulfamoyl)-2-(dimethylamino)-5-fluorobenzamide] | 100 to 1000 nM | 10 to 100 nM | H (>9.0 to 30)
COC[C@@H]1CN(c2cc(C)c3c4c(c(=O)oc3c2C)CN(C(=O)c2ccc(C(=O)NS(=O)(=O)N3CCCC3)c(OC3CCC3)c2)CC4)CCN1C [Example 131, (S)-2-cyclobutoxy-4-(8-(3-(methoxymethyl)-4-methylpiperazin-1-yl)-7,10-dimethyl-5-oxo-1,3,4,5-tetrahydro-2H-chromeno[3,4-c]pyridine-3-carbonyl)-N-(pyrrolidin-1-ylsulfonyl)benzamide] | 100 to 1000 nM | 10 to 100 nM | G (^ 3 to 9.0)
COC[C@H]1CN(c2cc(C)c3c4c(c(=O)oc3c2C)CN(C(=O)c2ccc(OC3CCC3)c(C(=O)NS(=O)(=O)N3CCCC3)c2)CC4)CCN1C [Example 163, (R)-2-cyclobutoxy-5-(8-(3-(methoxymethyl)-4-methylpiperazin-1-yl)-7,10-dimethyl-5-oxo-1,3,4,5-tetrahydro-2H-chromeno[3,4-c]pyridine-3-carbonyl)-N-(pyrrolidin-1-ylsulfonyl)benzamide] | > 5000 nM | 100 to 1000 nM | H (>9.0 to 30)
COC[C@H]1CN(c2cc(C)c3c4c(c(=O)oc3c2C)CN(C(=O)c2cc(N(C)C)c(C(=O)NS(=O)(=O)N3CCC(C(F)(F)F)CC3)cc2F)CC4)CCN1C [Example 296, (R)-2-(dimethylamino)-5-fluoro-4-(8-(3-(methoxymethyl)-4-methylpiperazin-1-yl)-7,10-dimethyl-5-oxo-1,3,4,5-tetrahydro-2H-chromeno[3,4-c]pyridine-3-carbonyl)-N-((4-(trifluoromethyl)piperidin-1-yl)sulfonyl)benzamide] | 100 to 1000 nM | 10 to 100 nM | 
COC[C@H]1CN(c2cc(Cl)c3c4c(c(=O)oc3c2C)CN(C(=O)c2cc(N(C)C)c(C(=O)NS(=O)(=O)N3CC[C@@H](OC)C3)cc2F)CC4)CCN1C [Example 285, 4-(10-chloro-8-((R)-3-(methoxymethyl)-4-methylpiperazin-1-yl)-7-methyl-5-oxo-1,3,4,5-tetrahydro-2H-chromeno[3,4-c]pyridine-3-carbonyl)-2-(dimethylamino)-5-fluoro-N-(((R)-3-methoxypyrrolidin-1-yl)sulfonyl)benzamide] | 100 to 1000 nM | 10 to 100 nM | H (>9.0 to 30)
COC[C@H]1CN(c2ccc3c4c(c(=O)oc3c2C)CN(C(=O)c2ccc(C(=O)NS(=O)(=O)C3(C)CC3)c(OC3CCC3)c2F)CC4)CCN1C [Example 42, (R)-2-cyclobutoxy-3-fluoro-4-(8-(3-(methoxymethyl)-4-methylpiperazin-1-yl)-7-methyl-5-oxo-1,3,4,5-tetrahydro-2H-chromeno[3,4-c]pyridine-3-carbonyl)-N-((1-methylcyclopropyl)sulfonyl)benzamide] | 1 to 10 nM | 1 to 10 nM | G (^ 3 to 9.0)
COC[C@H]1CN(c2cc(C)c3c4c(c(=O)oc3c2C)CN(C(=O)c2cc(C(=O)NS(=O)(=O)N3CCCC3)c(OC3CCC3)cc2F)CC4)CCN1C [Example 165, (R)-2-cyclobutoxy-4-fluoro-5-(8-(3-(methoxymethyl)-4-methylpiperazin-1-yl)-7,10-dimethyl-5-oxo-1,3,4,5-tetrahydro-2H-chromeno[3,4-c]pyridine-3-carbonyl)-N-(pyrrolidin-1-ylsulfonyl)benzamide] | > 5000 nM | 100 to 1000 nM | H (>9.0 to 30)
